This is an account of results in US20100062465A1, “Detection of Histone Deacetylase Inhibition” (priority 2006, published 2010).

The assay concerns HDAC. The assay is described as follows: Fluor de Lys fluorometric assay of HDAC activity in PC3 cells. To be noted: 24 h. It is filed as cell-based, human. The protocol: Briefly 20×10^3 cells/well were seeded in 96 well plates and incubated for 24 h with (a) 1 mM BLT (b) FSAHA at 2, 5, 10 μM (c) SAHA at 2, 5, 10 μM (d) FSAHA at 2, 5, 7, 8, 9, 10 μM in the presence of 1 mM BLT (e) FSAHA at 2, 5, 7, 8, 9, 10 μM in the presence of vehicle (DMSO). The Fluor de Lys substrate was then added for 1 h, medium removed, cells rinsed with PBS and incubated for 10 minutes with the Fluor-de-Lys developer, and fluorescence read at 460 nm using the Tecan microplate reader as above. Results were normalized to cell density as determined using the WST-1 assay in the same 96 well plate.

For `O=C(CCCCCCC(=O)Nc1ccccc1)NO` [SAHA, suberoylanilide hydroxamic acid, reference compound], the “HDAC activity (relative to controls)” value was 84±10% (2 μM), 51±3% (5 μM) and 29±3% (10 μM).
